Source: patent US20080008704A1, “Methods of treating colorectal cancer with anti-epidermal growth factor antibodies” (priority 2001, published 2008)
Entries after “also recorded” stand apart in the source; their conditions may differ.

Columns and labels:
Type in all cases: in vivo, human
[1] = system: metastatic colon cancer (EGF receptor positive); assay: Example 1: patient with metastatic colon cancer treated with C225 and CPT-11; settings: IRINOTECAN 125 mg/m^2 weekly given with C225
Experimental: (§1) A patient presented with abdominal pain and constipation. […] Pathology confirmed metastatic colon cancer which is incurable. […] Since there were no other standard treatment options their tumor was assayed for EGF receptor which was positive.
For the first two weeks, IRINOTECAN® was administered at a dose of 125 mg/m^2.

[2] = system: colon cancer relapse (unresectable peritoneal disease, pulmonary metastasis); assay: Example 2: same patient after relapse, treated again with C225 and dose reduced CPT-11, then C225 alone; settings: dose reduced CPT-11 with C225
Description: The subsequent history of the patient described in Example 1 is as follows. […] This was resected and subsequently they received both intrahepatic and systemic chemotherapy (FUDR and CPT-11) for 6 months.

[3] = system: metastatic colon cancer, liver metastasis; assay: Prior therapies of the Example 1 patient before C225; settings: same patient
Experimental: as §1

Structure (SMILES)	toxicity causing IRINOTECAN dose to be held or reduced [1]	tolerability of CPT-11 [2]	disease course on prior therapy [3]
CCc1c2c(nc3ccc(OC(=O)N4CCC(N5CCCCC5)CC4)cc13)-c1cc3c(c(=O)n1C2)COC(=O)[C@]3(O)CC [IRINOTECAN]	diarrhea; also recorded: neutropenia	discontinued secondary to toxicity	continued to progress in the liver
O=c1[nH]cc(F)c(=O)[nH]1 [5-FU, 5-fluorouracil]	–	–	progressed with increasing liver metastasis
O=C1[O][Pt]2([NH][C@@H]3CCCC[C@H]3[NH]2)[O]C1=O [OXALOPLATIN]	–	–	further disease progression in the liver
